Data from patent US8524917B2, “6-substituted indole-3-carboxylic acid amide compounds having sphingosine-1-phosphate (S1P) receptor antagonist biological activity” (Allergan, Inc., priority 2007, dated 2013).
Where two headings read alike, the source gives them in different places.

Target: human S1P3 receptor (Homo sapiens (Human), UniProt Q99500)
Test: Activation or block of activation of human S1P3 receptor, Ca+2 FLIPR assay
Type: cell-based
Conditions: for Kb: second concentration in the cell, read-out: S1P3 Kb
Protocol: Compounds were assessed for their ability to activate or block activation of the human S1P3 receptor in T24 cells stably expressing the human S1P3 receptor. Ten thousand cells/well were plated into 384-well poly-D-lysine coated plates one day prior to use. The growth media for the S1P3 receptor expressing cell line was McCoy's 5A medium supplemented with 10% charcoal-treated fetal bovine serum (FBS), 1% antibiotic-antimycotic and 400 μg/ml geneticin. On the day of the experiment, the cells were washed twice with Hank's Balanced Salt Solution supplemented with 20 mM HEPES (HBSS/Hepes buffer). […] Extracellular dye was removed by washing the cell plates four times prior to placing the plates in the FLIPR (Fluorometric Imaging Plate Reader, Molecular Devices). Ligands were diluted in HBSS/Hepes buffer and prepared in 384-well microplates. The positive control, Sphingosine-1-Phosphate (S1P), was diluted in HBSS/Hepes buffer with 4 mg/ml fatty acid free bovine serum albumin. The FLIPR transferred 12.5 μl from the ligand microplate to the cell plate and took fluorescent measurements for 75 seconds, taking readings every second, and then for 2.5 minutes, taking readings every 10 seconds. […] IC50 values were determined through a […] analysis using the Levenburg Marquardt algorithm.

[1] = T24 cells stably expressing the human S1P3 receptor, FLIPR Ca+2 response, 0.61 nM to 10,000 nM, read-out: S1P3 IC50
[2] = T24 cells stably expressing the human S1P3 receptor, value in brackets
[3] = T24 cells stably expressing the human S1P3 receptor

Sequence of human S1P3 receptor (Q99500 whole entry): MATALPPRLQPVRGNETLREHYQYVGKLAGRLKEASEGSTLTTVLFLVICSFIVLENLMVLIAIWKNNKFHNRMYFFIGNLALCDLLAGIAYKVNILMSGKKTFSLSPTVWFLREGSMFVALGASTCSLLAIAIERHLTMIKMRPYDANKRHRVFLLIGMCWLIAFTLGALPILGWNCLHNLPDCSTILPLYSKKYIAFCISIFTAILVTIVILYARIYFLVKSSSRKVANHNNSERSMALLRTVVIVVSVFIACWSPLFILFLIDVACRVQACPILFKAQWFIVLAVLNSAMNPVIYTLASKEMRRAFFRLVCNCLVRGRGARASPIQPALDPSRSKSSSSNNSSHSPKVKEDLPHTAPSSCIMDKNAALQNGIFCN

CC(C)Oc1ccc2c(C(=O)NCc3ccc(F)c(F)c3)c(C(C)C)n(Cc3ncco3)c2c1 [Compound 213, N-(3,4-Difluorobenzyl)-6-isopropoxy-2-isopropyl-1-(oxazol-2-ylmethyl)-1H-indole-3-carboxamide]
IC50 [1]: 189 nM | S1P3 (% inh) [2]: 100%

CC(C)Oc1ccc2c(C(=O)NCc3ccc(F)c(F)c3)c(CO)n(Cc3ccccn3)c2c1 [Compound 106, N-(3,4-Difluorobenzyl)-2-(hydroxymethyl)-6-isopropoxy-1-(pyridin-2-ylmethyl)-1H-indole-3-carboxamide]
IC50 [1]: 689 nM | S1P3 (% inh) [2]: 96%

CC(C)c1c(C(=O)NCc2ccc(F)c(F)c2)c2ccc(/C=N/OC(C)(C)C)cc2n1Cc1ccccc1
IC50 [1]: 145 nM | S1P3 (% inh) [2]: 99%

CCCNCc1ccc2c(C(=O)NCc3ccc(F)c(F)c3)c(C(C)C)n(Cc3ccccc3)c2c1
IC50 [1]: 2600 nM | S1P3 (% inh) [2]: 77%

CC(C)c1c(C(=O)NCc2ccc(F)c(F)c2)c2ccc(OC3CCC3)cc2n1Cc1cccnc1 [Compound 165, 6-Cyclobutoxy-N-(3,4-difluorobenzyl)-2-isopropyl-1-(pyridin-3-ylmethyl)-1H-indole-3-carboxamide]
IC50 [1]: 7 nM | S1P3 (% inh) [2]: 100%

CC(C)c1c(C(=O)NCc2ccc(F)c(F)c2)c2ccc(OC3CCCC3)cc2n1Cc1ncco1 [Compound 211, 6-(Cyclopentyloxy)-N-(3,4-difluorobenzyl)-2-isopropyl-1-(oxazol-2-ylmethyl)-1H-indole-3-carboxamide]
IC50 [1]: 10 nM | S1P3 (% inh) [2]: 100%

CCNC(=O)c1ccc2c(C(=O)NCc3ccc(F)c(F)c3)c(C(C)C)n(Cc3ccccc3)c2c1
IC50 [1]: 346 nM | S1P3 (% inh) [2]: 99%

CC(C)c1c(C(=O)NCc2ccc(F)c(F)c2)c2ccc(OC3CCCO3)cc2n1Cc1ccccn1 (stereo not drawn) [drawing 169]
IC50 [1]: 9 nM | S1P3 (% inh) [2]: 100%

CO/N=C/c1ccc2c(C(=O)NCc3ccc(F)c(F)c3)c(C(C)C)n(Cc3ccccc3)c2c1
IC50 [1]: 21 nM | S1P3 (% inh) [2]: 99%

CCOC(=O)c1ccc2c(C(=O)NCc3cc(F)cc(F)c3)c(C(C)C)n(Cc3ccccn3)c2c1 [Compound 48, Ethyl 3-(3,5-Difluorobenzylcarbamoyl)-2-isopropyl-1-(pyridin-2-ylmethyl)-1H-indole-6-carboxylate]
IC50 [1]: 24 nM | S1P3 (% inh) [2]: 100%

CC(C)c1c(C(=O)NCc2ccc(F)c(F)c2)c2ccc(C3=N[C@@H](C)CO3)cc2n1Cc1ccccc1 [Compound 76, (S)-1-Benzyl-N-(3,4-difluorobenzyl)-2-isopropyl-6-(4-methyl-4,5-dihydrooxazol-2-yl)-1H-indole-3-carboxamide]
IC50 [1]: 33 nM | S1P3 (% inh) [2]: 99%

CCOC(=O)Cn1c(C(C)C)c(C(=O)NCc2ccc(F)c(F)c2)c2ccc(OC3CCCC3)cc21 [Compound 223, Ethyl 2-(6-(Cyclopentyloxy)-3-(3,4-difluorobenzylcarbamoyl)-2-isopropyl-1H-indol-1-yl)acetate]
S1P3 (% inh): 24 nM (100) % | IC50 (read-out: S1P3 IC50): 24 nM

CC(C)c1c(C(=O)NCc2ccc(F)cc2)c2ccc(C3=N[C@@H](C)CO3)cc2n1Cc1ccccn1 [Compound 86, (S)—N-(4-Fluorobenzyl)-2-isopropyl-6-(4-methyl-4,5-dihydrooxazol-2-yl)-1-(pyridin-2-ylmethyl)-1H-indole-3-carboxamide]
IC50 [1]: 48 nM | S1P3 (% inh) [2]: 100%

CC(C)c1c(C(=O)NCc2ccc(F)c(F)c2)c2ccc(NC3CCC3)cc2n1Cc1ccccc1 [Compound 190, 1-Benzyl-6-(cyclobutylamino)-N-(3,4-difluorobenzyl)-2-isopropyl-1H-indole-3-carboxamide]
S1P3 (% inh): 13 nM (100) % | IC50 (read-out: S1P3 IC50): 13 nM

CC(C)c1c(C(=O)NCc2ccc(F)c(F)c2)c2ccc(/C=N/N(C)C)cc2n1Cc1ccccn1
IC50 [1]: 93 nM | S1P3 (% inh) [2]: 100%

CCCCOc1ccc2c(C(=O)NCc3ccc(F)c(F)c3)c(C(C)C)n(Cc3ccccc3)c2c1 [Compound 12, 1-Benzyl-6-butoxy-N-(3,4-difluorobenzyl)-2-isopropyl-1H-indole-3-carboxamide]
IC50 [1]: 3 nM | S1P3 (% inh) [2]: 100%

CO/N=C/c1ccc2c(C(=O)NCc3ccc(F)c(F)c3)c(C(C)C)n(Cc3ccccn3)c2c1
IC50 [1]: 137 nM | S1P3 (% inh) [2]: 100%

CC(C)c1c(C(=O)NCc2ccc(F)c(F)c2)c2ccc(OC3CCCC3)cc2n1Cc1ccccn1
IC50 [1]: 3 nM | Kb [3]: 4 nM | S1P3 (% inh) [2]: 100%

CC[C@H]1COC(c2ccc3c(C(=O)NCc4ccc(F)c(F)c4)c(C(C)C)n(Cc4ccccc4)c3c2)=N1 [Compound 75, (S)-1-Benzyl-N-(3,4-difluorobenzyl)-6-(4-ethyl-4,5-dihydrooxazol-2-yl)-2-isopropyl-1H-indole-3-carboxamide]
IC50 [1]: 17 nM | S1P3 (% inh) [2]: 97%

CC(C)Cn1c(C(C)C)c(C(=O)NCc2ccc(F)c(F)c2)c2ccc(OC3CCCC3)cc21 [Compound 159, 6-(Cyclopentyloxy)-N-(3,4-difluorobenzyl)-1-isobutyl-2-isopropyl-1H-indole-3-carboxamide]
IC50 [1]: 41 nM | S1P3 (% inh) [2]: 96%

CCCOc1ccc2c(C(=O)NCc3ccc(F)c(F)c3)c(C(C)C)n(Cc3ncco3)c2c1 [Compound 212, N-(3,4-Difluorobenzyl)-2-isopropyl-1-(oxazol-2-ylmethyl)-6-propoxy-1H-indole-3-carboxamide]
S1P3 (% inh): 393 nM (100) % | IC50 (read-out: S1P3 IC50): 393 nM

CCOC(=O)c1ccc2c(C(=O)NCc3ccc(F)c(F)c3)c(C(C)C)n(Cc3ccccc3)c2c1 [Compound 43, Ethyl 1-Benzyl-3-(3,4-difluorobenzylcarbamoyl)-2-isopropyl-1H-indole-6-carboxylate]
IC50 [1]: 7 nM | Kb [3]: 8 nM | S1P3 (% inh) [2]: 100%

CC(C)c1c(C(=O)NCc2ccc(F)c(F)c2)c2ccc(CN3CCCC3)cc2n1Cc1ccccc1
IC50 [1]: 362 nM | S1P3 (% inh) [2]: 93%

CC(C)c1c(C(=O)NCc2ccc(F)c(F)c2)c2ccc(NC3CCCC3)cc2n1Cc1ccccc1 [Compound 130, 1-Benzyl-6-(cyclopentylamino)-N-(3,4-difluorobenzyl)-2-isopropyl-1H-indole-3-carboxamide]
IC50 [1]: 44 nM | S1P3 (% inh) [2]: 99%

CC(C)c1c(C(=O)NCc2ccc(F)c(F)c2)c2ccc(OC3CCOC3)cc2n1Cc1ccccc1 (stereo not drawn) [Compound 19, 1-Benzyl-N-(3,4-difluorobenzyl)-2-isopropyl-6-(tetrahydrofuran-3-yloxy)-1H-indole-3-carboxamide]
IC50 [1]: 6 nM | S1P3 (% inh) [2]: 100%

CCCCOC(=O)c1ccc2c(C(=O)NCc3ccc(F)c(F)c3)c(C(C)C)n(Cc3ccccc3)c2c1
IC50 [1]: 4 nM | S1P3 (% inh) [2]: 97%

CC(C)c1c(C(=O)NCc2cncc(F)c2)c2ccc(OC3CCCC3)cc2n1Cc1cccnc1 [Compound 163, 6-(Cyclopentyloxy)-N-((5-fluoropyridin-3-yl)methyl)-2-isopropyl-1-(pyridin-3-ylmethyl)-1H-indole-3-carboxamide]
IC50 [1]: 55 nM | S1P3 (% inh) [2]: 100%

CO/N=C(\C)c1ccc2c(C(=O)NCc3ccc(F)c(F)c3)c(C(C)C)n(Cc3ccccc3)c2c1
IC50: 147 nM | S1P3 (% inh): 147 nM (100) %

CC(=O)c1c(C(=O)NCc2ccc(F)c(F)c2)c2ccc(OC(C)C)cc2n1Cc1ccccn1 [Compound 109, 2-Acetyl-N-(3,4-difluorobenzyl)-6-isopropoxy-1-(pyridin-2-ylmethyl)-1H-indole-3-carboxamide]
IC50 [1]: 21 nM | S1P3 (% inh) [2]: 99%

CC(C)c1c(C(=O)NCc2ccc(F)c(F)c2)c2ccc(OC3CCOCC3)cc2n1Cc1ccccc1 [Compound 133, 1-Benzyl-N-(3,4-difluorobenzyl)-2-isopropyl-6-(tetrahydro-2H-pyran-4-yloxy)-1H-indole-3-carboxamide]
S1P3 (% inh): 36 nM (99) % | IC50 (read-out: S1P3 IC50): 36 nM

CC[C@H]1COC(c2ccc3c(C(=O)NCc4cncc(F)c4)c(C(C)C)n(Cc4ccccc4)c3c2)=N1 [Compound 73, (S)-1-Benzyl-6-(4-ethyl-4,5-dihydrooxazol-2-yl)-N-((5-fluoropyridin-3-yl)methyl)-2-isopropyl-1H-indole-3-carboxamide]
IC50 [1]: 35 nM | S1P3 (% inh) [2]: 100%

Cc1cc(Cn2c(C(C)C)c(C(=O)NCc3ccc(F)c(F)c3)c3ccc(OC4CCCC4)cc32)no1 [Compound 219, 6-(Cyclopentyloxy)-N-(3,4-difluorobenzyl)-2-isopropyl-1-((5-methylisoxazol-3-yl)methyl)-1H-indole-3-carboxamide]
IC50 [1]: 38 nM | S1P3 (% inh) [2]: 99%

CC(C)c1c(C(=O)NCc2ccc(F)cc2)c2ccc(NC3CCC3)cc2n1Cc1ccccc1 [Compound 195, 1-Benzyl-6-(cyclobutylamino)-N-(4-fluorobenzyl)-2-isopropyl-1H-indole-3-carboxamide]
IC50 [1]: 51 nM | S1P3 (% inh) [2]: 99%

CC(C)c1c(C(=O)NCc2ccc(F)c(F)c2)c2ccc(OC3CCCO3)cc2n1Cc1ccccn1 (stereo not drawn) [drawing 164]
IC50 [1]: 9 nM | S1P3 (% inh) [2]: 100%

CC(C)c1c(C(=O)NCc2ccc(F)c(F)c2)c2ccc(CN(C)C)cc2n1Cc1ccccc1
IC50 [1]: 990 nM | S1P3 (% inh) [2]: 98%
